# Laboratory results published in patent US20110002843A1, “METHOD OF DETECTING MYOCARDIAL DYSFUNCTION IN PATIENTS HAVING A HISTORY OF ASTHMA OR BRONCHOSPASM” (priority 2005, published 2011).
# Assay: Pulmonary responses and safety in human subjects with mild, intermittent asthma (single-blind and double-blind parts)
# Assay type: in vivo
# Settings: for FEV1 (L) Mean % Change from Baseline (SD) / FEV1 (L) Mean (SD) / FVC Mean % Change from Baseline (SD) / FVC Mean (SD) / changes from baseline in mean FEV1, FEV1 (% predicted), FEF25%-75%, FVC / subjects with treatment-emergent AEs / FEF25%-75% Mean % Change from Baseline (SD) / FEF25%-75% Mean (SD) / FEV1 (% predicted) Mean % Change from Baseline (SD) / FEV1 (% predicted) Mean (SD): single-blind
# Protocol: Methodology: The study consisted of 2 parts, a Single-Blind Part and a Double-Blind Part. The dose escalating, Single-Blind Part enrolled subjects with mild, intermittent asthma and consisted of 3 sequentially enrolled dosing cohorts with 8 subjects per cohort, such that Dosing Cohorts 1, 2 and 3 received binodenoson target doses of 0.5 μg/kg, 1.0 μg/kg and 1.5 μg/kg, respectively. All 8 subjects in a dosing cohort must have completed dosing at the assigned dose and a medical review of each cohort must have been acceptable before enrollment in the next cohort began. The Double-Blind Part was initiated only if the medical review of all safety data from the Single-Blind Part was acceptable. In the Double Blind Part, subjects with mild, intermittent asthma were randomly assigned in a 2:1 ratio to receive either binodenoson 1.5 μg/kg (n=40 planned) or placebo control (n=20 planned).
# Both study parts were comprised of Screening, Treatment and Follow-Up Visits. The Screening Visit occurred 7 to 14 days before the Treatment Visit and consisted of a physical examination, medical history and application of inclusion and exclusion criteria. Subjects were instructed to measure peak expiratory flow (PEF) and asthma symptoms during a period of at least 7 days prior to the Treatment Visit. Subjects were to continue to meet all Screening eligibility criteria at the Treatment Visit and forced expiratory volume in 1 second (FEV1) was to remain within 80% of predicted for subjects to be eligible for dosing. All subjects enrolled in the Single-Blind Part and subjects randomized to receive binodenoson in the Double-Blind Part received 3 intravenous (IV) injections during the Treatment Visit: (1) placebo; (2) a low, challenge binodenoson dose to detect potential hypersensitivity reactions; and (3) an assigned binodenoson test dose. Subjects randomized to receive placebo in the Double Blind Part received 3 placebo injections. The Follow-Up Visit occurred 2 to 4 days following the Treatment Visit.
# Eligible subjects were males or non-pregnant, nonlactating females ≧18 years of age weighing <350 pounds with a medical history of mild, intermittent asthma (as defined in the “Guidelines for the Diagnosis and Management of Asthma” prepared by the National Institutes of Health [NIH]) within 6 months of Screening.
# Subjects were not eligible for the study if they had resting sitting systolic blood pressure (SBP)<100 or >140 mmHg, diastolic blood pressure (DBP)<60 or >90 mmHg, pulse rate >95 beats per minute (bpm), or a lower limit FEV1 at rest of <80% of the predicted value at Screening.
# Dose and Mode of Administration: A stock solution of binodenoson (25 μg/mL) was administered as a bolus injection over 30 seconds (0.1 μg/kg=0.004 mL/kg of stock solution, 0.5 μg/kg=0.02 mL/kg of stock solution, 1.0 μg/kg=0.04 mL/kg of stock solution and 1.5 μg/kg=0.06 mL/kg of stock solution).
# Duration of Treatment: Each subject received three 30-second bolus IV injections separated by ≧90 minutes in both the Single Blind and Double-Blind Parts of the study.
# Criteria for Evaluation: The primary safety endpoint was clinically significant bronchoconstriction, defined as a ≧20% decrease in FEV1 from the predrug baseline following binodenoson administration. Other safety assessments included need for rescue medication, regular measurements of pulmonary function (FEV1 [% predicted], forced vital capacity [FVC] and forced expiratory flow during the middle half of the FVC [FEF25%-75%]), vital signs, pulse oximetry, physical examination findings, electrocardiogram (ECG) results, clinical laboratory results and adverse events.
# Statistical Methods: All data collected in the study were summarized by treatment (placebo; 0.1 μg/kg binodenoson challenge; or 0.5, 1.0, or 1.5 μg/kg binodenoson) and study Part (Single-Blind or Double-Blind with univariate summaries). Continuous variables were summarized with descriptive statistics (n, mean, median, standard deviation [SD] and minimum and maximum). […]
# [1] = Cohort 3, second injection 0.1 μg/kg iv bolus, 90 minutes
# [2] = third injection 0.5 μg/kg iv bolus, 5 min
# [3] = third injection 0.5 μg/kg iv bolus, 15 min
# [4] = third injection 0.5 μg/kg iv bolus, 45 min
# [5] = third injection 0.5 μg/kg iv bolus, 90 min
# [6] = third injection 1.0 μg/kg iv bolus, 5 min
# [7] = third injection 1.0 μg/kg iv bolus, 15 min
# [8] = third injection 1.0 μg/kg iv bolus, 45 min
# [9] = third injection 1.0 μg/kg iv bolus, 90 min
# [10] = third injection 1.5 μg/kg iv bolus, 5 min
# [11] = third injection 1.5 μg/kg iv bolus, 15 min
# [12] = third injection 1.5 μg/kg iv bolus, 45 min
# [13] = third injection 1.5 μg/kg iv bolus, 90 min
compound,measurement,setting,value
"Nc1nc(N/N=C/C2CCCCC2)nc2c1ncn2[C@@H]1O[C@H](CO)[C@@H](O)[C@H]1O (stereo in doubt) [Binodenoson, 2-{2-[(Cyclohexyl)methylene]hydrazino}adenosine]",FEV1 (L) Mean % Change from Baseline (SD),[1],0.901 (2.441) %
same,FEV1 (L) Mean (SD),[1],3.343 (0.657) L
same,FVC Mean % Change from Baseline (SD),[1],−0.163 (0.894) %
same,FVC Mean (SD),[1],4.334 (0.850)
same,"changes from baseline in mean FEV1, FEV1 (% predicted), FEF25%-75%, FVC",after binodenoson 0.1 μg/kg injection,No clinically significant changes from baseline
same,subjects with treatment-emergent AEs,binodenoson 0.1 μg/kg,No subjects experienced treatment-emergent AEs
same,subjects with treatment-emergent AEs,third injection 0.5 μg/kg,25%
same,FEF25%-75% Mean % Change from Baseline (SD),[2],−3.549 (6.717) %
same,FEF25%-75% Mean (SD),[2],3.111 (0.915)
same,FEV1 (% predicted) Mean % Change from Baseline (SD),[2],−2.3 (3.4) %
same,FEV1 (% predicted) Mean (SD),[2],92.6 (12.5) % predicted
same,FEV1 (L) Mean % Change from Baseline (SD),[2],−2.327 (3.977) %
same,FEV1 (L) Mean (SD),[2],3.995 (0.820) L
same,FVC Mean % Change from Baseline (SD),[2],−1.162 (2.708) %
same,FVC Mean (SD),[2],5.581 (1.151)
same,FEF25%-75% Mean % Change from Baseline (SD),[3],−1.773 (3.375) %
same,FEF25%-75% Mean (SD),[3],3.169 (0.885)
same,FEV1 (% predicted) Mean % Change from Baseline (SD),[3],−0.9 (2.1) %
same,FEV1 (% predicted) Mean (SD),[3],94.0 (11.9) % predicted
same,FEV1 (L) Mean % Change from Baseline (SD),[3],−0.967 (2.171) %
same,FEV1 (L) Mean (SD),[3],4.049 (0.800) L
same,FVC Mean % Change from Baseline (SD),[3],−0.033 (1.645) %
same,FVC Mean (SD),[3],5.640 (1.130)
same,FEF25%-75% Mean % Change from Baseline (SD),[4],−2.338 (5.471) %
same,FEF25%-75% Mean (SD),[4],3.158 (0.899)
same,FEV1 (% predicted) Mean % Change from Baseline (SD),[4],−1.5 (2.1) %
same,FEV1 (% predicted) Mean (SD),[4],93.4 (11.7) % predicted
same,FEV1 (L) Mean % Change from Baseline (SD),[4],−1.455 (2.494) %
same,FEV1 (L) Mean (SD),[4],4.034 (0.821) L
same,FVC Mean % Change from Baseline (SD),[4],−0.838 (3.371) %
same,FVC Mean (SD),[4],5.591 (1.122)
same,FEF25%-75% Mean % Change from Baseline (SD),[5],−3.732 (9.304) %
same,FEF25%-75% Mean (SD),[5],3.106 (0.892)
same,FEV1 (% predicted) Mean % Change from Baseline (SD),[5],−2.0 (3.4) %
same,FEV1 (% predicted) Mean (SD),[5],92.9 (12.5) % predicted
same,FEV1 (L) Mean % Change from Baseline (SD),[5],−2.365 (3.864) %
same,FEV1 (L) Mean (SD),[5],4.000 (0.840) L
same,FVC Mean % Change from Baseline (SD),[5],−0.963 (3.579) %
same,FVC Mean (SD),[5],5.600 (1.196)
same,subjects with treatment-emergent AEs,third injection 1.0 μg/kg,50%
same,FEF25%-75% Mean % Change from Baseline (SD),[6],2.938 (17.701) %
same,FEF25%-75% Mean (SD),[6],3.571 (1.546)
same,FEV1 (% predicted) Mean % Change from Baseline (SD),[6],−0.1 (5.7) %
same,FEV1 (% predicted) Mean (SD),[6],93.5 (11.5) % predicted
same,FEV1 (L) Mean % Change from Baseline (SD),[6],−0.071 (5.830) %
same,FEV1 (L) Mean (SD),[6],3.889 (0.883) L
same,FVC Mean % Change from Baseline (SD),[6],0.316 (3.947) %
same,FVC Mean (SD),[6],5.106 (1.192)
same,FEF25%-75% Mean % Change from Baseline (SD),[7],1.896 (7.770) %
same,FEF25%-75% Mean (SD),[7],3.534 (1.364)
same,FEV1 (% predicted) Mean % Change from Baseline (SD),[7],0.0 (3.8) %
same,FEV1 (% predicted) Mean (SD),[7],93.6 (13.0) % predicted
same,FEV1 (L) Mean % Change from Baseline (SD),[7],0.113 (3.892) %
same,FEV1 (L) Mean (SD),[7],3.899 (0.884) L
same,FVC Mean % Change from Baseline (SD),[7],−0.138 (3.728) %
same,FVC Mean (SD),[7],5.078 (1.156)
same,FEF25%-75% Mean % Change from Baseline (SD),[8],7.715 (11.942) %
same,FEF25%-75% Mean (SD),[8],3.759 (1.554)
same,FEV1 (% predicted) Mean % Change from Baseline (SD),[8],0.6 (6.3) %
same,FEV1 (% predicted) Mean (SD),[8],94.3 (16.4) % predicted
same,FEV1 (L) Mean % Change from Baseline (SD),[8],0.344 (6.156) %
same,FEV1 (L) Mean (SD),[8],3.926 (1.012) L
same,FVC Mean % Change from Baseline (SD),[8],−1.792 (6.201) %
same,FVC Mean (SD),[8],5.020 (1.300)
same,FEF25%-75% Mean % Change from Baseline (SD),[9],9.498 (11.643) %
same,FEF25%-75% Mean (SD),[9],3.830 (1.595)
same,FEV1 (% predicted) Mean % Change from Baseline (SD),[9],2.6 (4.5) %
same,FEV1 (% predicted) Mean (SD),[9],96.3 (15.9) % predicted
same,FEV1 (L) Mean % Change from Baseline (SD),[9],2.406 (4.249) %
same,FEV1 (L) Mean (SD),[9],4.005 (0.983) L
same,FVC Mean % Change from Baseline (SD),[9],−0.051 (2.348) %
same,FVC Mean (SD),[9],5.105 (1.262)
same,subjects with treatment-emergent AEs,third injection 1.5 μg/kg,75%
same,FEF25%-75% Mean % Change from Baseline (SD),[10],2.411 (12.016) %
same,FEF25%-75% Mean (SD),[10],2.880 (0.584)
same,FEV1 (% predicted) Mean % Change from Baseline (SD),[10],0.4 (2.6) %
same,FEV1 (% predicted) Mean (SD),[10],91.6 (8.1) % predicted
same,FEV1 (L) Mean % Change from Baseline (SD),[10],0.336 (2.702) %
same,FEV1 (L) Mean (SD),[10],3.344 (0.610) L
same,FVC Mean % Change from Baseline (SD),[10],0.031 (2.871) %
same,FVC Mean (SD),[10],4.334 (0.845)
same,FEF25%-75% Mean % Change from Baseline (SD),[11],2.110 (5.540) %
same,FEF25%-75% Mean (SD),[11],2.890 (0.645)
same,FEV1 (% predicted) Mean % Change from Baseline (SD),[11],−0.5 (2.0) %
same,FEV1 (% predicted) Mean (SD),[11],90.8 (7.8) % predicted
same,FEV1 (L) Mean % Change from Baseline (SD),[11],−0.380 (2.306) %
same,FEV1 (L) Mean (SD),[11],3.330 (0.666) L
same,FVC Mean % Change from Baseline (SD),[11],−1.335 (2.366) %
same,FVC Mean (SD),[11],4.281 (0.882)
same,FEF25%-75% Mean % Change from Baseline (SD),[12],−1.475 (6.450) %
same,FEF25%-75% Mean (SD),[12],2.803 (0.705)
same,FEV1 (% predicted) Mean % Change from Baseline (SD),[12],−0.4 (2.3) %
same,FEV1 (% predicted) Mean (SD),[12],90.9 (7.9) % predicted
same,FEV1 (L) Mean % Change from Baseline (SD),[12],−0.439 (2.820) %
same,FEV1 (L) Mean (SD),[12],3.331 (0.682) L
same,FVC Mean % Change from Baseline (SD),[12],−0.179 (2.938) %
same,FVC Mean (SD),[12],4.326 (0.872)
same,FEF25%-75% Mean % Change from Baseline (SD),[13],0.469 (2.514) %
same,FEF25%-75% Mean (SD),[13],2.851 (0.654)
same,FEV1 (% predicted) Mean % Change from Baseline (SD),[13],0.6 (1.3) %
same,FEV1 (% predicted) Mean (SD),[13],91.9 (7.4) % predicted
same,FEV1 (L) Mean % Change from Baseline (SD),[13],0.617 (1.762) %
same,FEV1 (L) Mean (SD),[13],3.365 (0.680) L
same,FVC Mean % Change from Baseline (SD),[13],0.537 (2.460) %
same,FVC Mean (SD),[13],4.358 (0.878)
same,"changes from baseline in mean FEV1, FEV1 (% predicted), FEF25%-75%, FVC","third injection (0.5, 1.0, 1.5 μg/kg)",no clinically significant changes from baseline
same,"deaths, serious AEs, premature discontinuations due to AEs",whole study,"no deaths, serious AEs, or premature discontinuations due to AEs"
same,"laboratory evaluations, ECG, pulse oximetry",whole study,No clinically meaningful results
